Experimental data: PubChem BioAssay AID296 (DTP/NCI, 2004)
“And” between values parts separate entries of the source, which are not always exact repeats. Identical values can stand only once. Results filed as inconclusive are left out.

Test system: MX-1 breast xenograft, nude mice, tumor weight T/C
Experiment: NCI In Vivo Anticancer Drug Screen. Data for tumor model Human Mammary Carcinoma MX-1 Xenograft (intrarenal inoculation) in NU/NU Swiss (nude) mice
Conditions: endpoint: mean tumor weight change, higher = larger tumour
How it was run: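 Read-out: treated (T) over vehicle control (C) ratio of survival or tumor size. Dosing in animals carrying the transplanted tumor.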

[1] = dose: 300.0 mg/kg/injection, schedule: Q04DX003 (sc), vehicle: saline with Tween-80
[2] = dose: 600.0 mg/kg/injection, schedule: Q04DX003 (sc), vehicle: saline with Tween-80
[3] = dose: 150.0 mg/kg/injection, schedule: Q04DX003 (sc), vehicle: Klucel (hydroxypropylcellulose) (HPC)
[4] = dose: 150.0 mg/kg/injection, schedule: Q04DX003 (ip), vehicle: saline
[5] = dose: 300.0 mg/kg/injection, schedule: Q04DX003 (ip), vehicle: saline
[6] = dose: 6.25 mg/kg/injection, schedule: Q01DX010 (sc), vehicle: Klucel (hydroxypropylcellulose) (HPC)
[7] = dose: 12.5 mg/kg/injection, schedule: Q01DX010 (sc), vehicle: Klucel (hydroxypropylcellulose) (HPC)
[8] = dose: 25.0 mg/kg/injection, schedule: Q01DX010 (sc), vehicle: Klucel (hydroxypropylcellulose) (HPC)

In the case of `CNC(=O)c1cccc2c(Nc3ccc(NS(C)(=O)=O)cc3OC)c3cccc(C)c3nc12`, the T/C (dose: 50.0 mg/kg/injection, schedule: Q04DX003 (sc), vehicle: water) is reported as 111 % of control, the T/C (dose: 100.0 mg/kg/injection, schedule: Q04DX003 (sc), vehicle: water) is reported as 73 % of control and the T/C (dose: 200.0 mg/kg/injection, schedule: Q04DX003 (sc), vehicle: water) is reported as 31 % of control.

For `COc1cc2c3c(cccc3c1)C(=O)N(CCN(C)C)C2=O`, the T/C [1] was 100 % of control and the T/C [2] was 103 % of control.

In the case of `C=Cc1cnc([N+](=O)[O-])n1C`, the T/C [3] is reported as 72 % of control, the T/C (dose: 300.0 mg/kg/injection, schedule: Q04DX003 (sc), vehicle: Klucel (hydroxypropylcellulose) (HPC)) is reported as 78 % of control and the T/C (dose: 600.0 mg/kg/injection, schedule: Q04DX003 (sc), vehicle: Klucel (hydroxypropylcellulose) (HPC)) is reported as 54 % of control.

In the case of `Cn1ccc(=Nc2ccc(NC(=O)c3ccc(N=c4ccn(C)c5ccc([N+](=O)[O-])cc45)cc3[N+](=O)[O-])cc2)cc1`, the T/C (dose: 300.0 mg/kg/injection, schedule: Q04DX003 (sc), vehicle: saline + Tween-80 + alcohol) is reported as 123 % of control, the T/C (dose: 1200.0 mg/kg/injection, schedule: Q04DX003 (sc), vehicle: saline + Tween-80 + alcohol) is reported as 117 % of control and the T/C (dose: 2400.0 mg/kg/injection, schedule: Q04DX003 (sc), vehicle: saline + Tween-80 + alcohol) is reported as 69 % of control.

For `O=S1(=O)CS(=O)(=O)OCCO1`, the T/C (dose: 37.5 mg/kg/injection, schedule: Q04DX003 (sc), vehicle: Klucel (hydroxypropylcellulose) (HPC)) was 25 % of control, the T/C (dose: 75.0 mg/kg/injection, schedule: Q04DX003 (sc), vehicle: Klucel (hydroxypropylcellulose) (HPC)) was 42 % of control and the T/C [3] was 7 % of control.

In the case of `COC1/C=C\C=C(/C)C(=O)NC2=CC(=O)C=C(C2=O)C(OC)C(C)CC(OC)C(OC)C(C)/C=C(/C)C1OC(N)=O` (stereo not given), the T/C (dose: 2.25 mg/kg/injection, schedule: Q04DX003 (sc), vehicle: Klucel (hydroxypropylcellulose) (HPC)) is reported as 77 % of control, the T/C (dose: 4.5 mg/kg/injection, schedule: Q04DX003 (sc), vehicle: Klucel (hydroxypropylcellulose) (HPC)) is reported as 63 % of control and the T/C (dose: 9.0 mg/kg/injection, schedule: Q04DX003 (sc), vehicle: Klucel (hydroxypropylcellulose) (HPC)) is reported as 52 % of control.

`CN=C(N)N/N=C(\C)c1ccc2c(c1)Cc1cc(/C(C)=N/NC(N)=NC)ccc1-2` was tested, and the T/C (dose: 6.0 mg/kg/injection, schedule: Q04DX003 (sc), vehicle: saline with Tween-80) was 46 % of control, the T/C (dose: 12.0 mg/kg/injection, schedule: Q04DX003 (sc), vehicle: saline with Tween-80) was 84 % of control and the T/C (dose: 24.0 mg/kg/injection, schedule: Q04DX003 (sc), vehicle: saline with Tween-80) was 100 % of control. The T/C (dose: 48.0 mg/kg/injection, schedule: Q04DX003 (sc), vehicle: saline with Tween-80) was 58 % of control.

With `O=CC(CO)CC(C=O)n1cnc2c(=O)[nH]cnc21` (stereo not given) the T/C [4] was 62 % of control, the T/C [5] was 57 % of control and the T/C (dose: 600.0 mg/kg/injection, schedule: Q04DX003 (ip), vehicle: saline) was 30 % of control.

With `Cn1cnc([N+](=O)[O-])c1Sc1ncn[nH]1` the T/C (dose: 100.0 mg/kg/injection, schedule: Q04DX003 (sc), vehicle: suspension in saline) was 72 % of control, the T/C (dose: 200.0 mg/kg/injection, schedule: Q04DX003 (sc), vehicle: suspension in saline) was 95 % of control and the T/C (dose: 400.0 mg/kg/injection, schedule: Q04DX003 (sc), vehicle: suspension in saline) was 92 % of control.

`C=C1C(=O)OCC2C(C(=O)O)=CC3C(C)C(C)=CC123` (stereo not given) was tested, and the T/C [6] was 78 % of control and the T/C [7] was 113 % of control.

`O=C(O)CCCCCCCC(=O)O` was tested, and the T/C (dose: 300.0 mg/kg/injection, schedule: Q04DX003 (sc), vehicle: distilled water + Tween-80) was 151 % of control, the T/C (dose: 600.0 mg/kg/injection, schedule: Q04DX003 (sc), vehicle: distilled water + Tween-80) was 150 % of control and the T/C (dose: 1200.0 mg/kg/injection, schedule: Q04DX003 (sc), vehicle: distilled water + Tween-80) was 80 % of control.

For `CCOC(OCC)C(=O)OCC(=O)[C@]1(O)Cc2c(O)c3c(c(O)c2[C@@H](OC2CC(N)C(O)C(C)O2)C1)C(=O)c1c(OC)cccc1C3=O` (stereo not given in full), the T/C (dose: 4.0 mg/kg/injection, schedule: Q01DX010 (sc), vehicle: water) was 27 % of control and 44 % of control.

With `Cn1cnc([N+](=O)[O-])c1S(=O)(=O)NCN1CCOCC1` the T/C [8] was 94 % of control, the T/C (dose: 50.0 mg/kg/injection, schedule: Q01DX010 (sc), vehicle: Klucel (hydroxypropylcellulose) (HPC)) was 76 % of control and the T/C (dose: 100.0 mg/kg/injection, schedule: Q01DX010 (sc), vehicle: Klucel (hydroxypropylcellulose) (HPC)) was 94 % of control. The T/C (dose: 200.0 mg/kg/injection, schedule: Q01DX010 (sc), vehicle: Klucel (hydroxypropylcellulose) (HPC)) was 78 % of control.

With `c1cc(OCC2CO2)ccc1OCC1CO1` (stereo not given) the T/C [1] was 110 % of control, the T/C [2] was 103 % of control and the T/C (dose: 1200.0 mg/kg/injection, schedule: Q04DX003 (sc), vehicle: saline with Tween-80) was 92 % of control. The T/C (dose: 2400.0 mg/kg/injection, schedule: Q04DX003 (sc), vehicle: saline with Tween-80) was 106 % of control.

With `CO[C@H](C(=O)[C@@H](O)[C@@H](C)O)[C@@H]1Cc2cc3cc(OC4CC(OC5CC(O)C(O)C(C)O5)C(O)C(C)O4)c(C)c(O)c3c(O)c2C(=O)[C@H]1OC1CC(OC2CC(OC3CC(C)(O)C(O)C(C)O3)C(O)C(C)O2)C(O)C(C)O1` (stereo not given in full) the T/C (dose: 0.25 mg/kg/injection, schedule: Q01DX010 (sc), vehicle: saline) was 86 % of control, the T/C (dose: 0.25 mg/kg/injection, schedule: Q04DX003 (sc), vehicle: saline) was 105 % of control and the T/C (dose: 0.5 mg/kg/injection, schedule: Q04DX003 (sc), vehicle: saline) was 72 % of control. The T/C (dose: 0.75 mg/kg/injection, schedule: Q04DX003 (sc), vehicle: saline) was 66 % of control, the T/C (dose: 1.0 mg/kg/injection, schedule: Q04DX003 (sc), vehicle: saline) was 42 % of control and the T/C (dose: 1.5 mg/kg/injection, schedule: Q04DX003 (sc), vehicle: saline) was 26 % of control. The T/C (dose: 2.0 mg/kg/injection, schedule: Q01DX010 (sc), vehicle: saline) was -98 % of control and the T/C (dose: 2.0 mg/kg/injection, schedule: Q04DX003 (sc), vehicle: saline) was -34 % of control.

`CO[C@H](/C(C)=C/C=C/C(C)=C/c1coc(C)n1)[C@H](C)[C@H]1C[C@@H](O)[C@@]2(C)O[C@H]2/C=C/[C@@H](C)[C@@H]2C[C@@H](CC(=O)O2)C[C@H]2O[C@@H]2C(=O)O1` was tested, and the T/C (dose: 0.25 mg/kg/injection, schedule: Q04DX003 (ip), vehicle: Klucel (hydroxypropylcellulose) (HPC)) was 34 % of control, the T/C (dose: 0.5 mg/kg/injection, schedule: Q04DX003 (ip), vehicle: Klucel (hydroxypropylcellulose) (HPC)) was 2 % of control and the T/C (dose: 1.0 mg/kg/injection, schedule: Q04DX003 (ip), vehicle: Klucel (hydroxypropylcellulose) (HPC)) was 3 % of control. For the same compound, the T/C (dose: 2.0 mg/kg/injection, schedule: Q04DX003 (ip), vehicle: Klucel (hydroxypropylcellulose) (HPC)) was -26 % of control.

In the case of `COC1N(C2CC(O)C(CO)O2)C(=O)NC(=O)C1(F)Br` (stereo not given), the T/C (dose: 12.5 mg/kg/injection, schedule: Q01DX010 (sc), vehicle: saline) is reported as 117 % of control.

In the case of `CC(C)NC(=O)OCc1c(COC(=O)NC(C)C)c(-c2ccc(Cl)c(Cl)c2)n2c1CCC2`, the T/C (dose: 25.0 mg/kg/injection, schedule: Q01DX010 (sc), vehicle: distilled water + Tween-80) is reported as -21 % of control, the T/C (dose: 50.0 mg/kg/injection, schedule: Q01DX010 (sc), vehicle: distilled water + Tween-80) is reported as 16 % of control and the T/C [4] is reported as 21 % of control. For the same compound, the T/C [5] was 28 % of control.

In the case of `C1CCC2[N-]CC3CCCCC3[N-]CC3CCCCC3[N-]CC3CCCCC3[N-]CC2C1.[Cu]` (stereo not given), the T/C (dose: 3.13 mg/kg/injection, schedule: Q01DX010 (sc), vehicle: Klucel (hydroxypropylcellulose) (HPC)) is reported as 47 % of control, the T/C [6] is reported as 193 % of control and the T/C [7] is reported as 178 % of control. The T/C [8] was 113 % of control.

`CC(=O)Nc1ccc(C(=O)C=O)cc1` was tested, and the T/C (dose: 200.0 mg/kg/injection, schedule: Q01DX010 (sc), vehicle: saline with Tween-80) was 55 % of control.

For `c1cc(NC2CCCCC2)ccc1CN1CCOCC1`, the T/C (dose: 50.0 mg/kg/injection, schedule: Q01DX010 (sc), vehicle: saline + Tween-80 + alcohol) was 66 % of control, the T/C (dose: 100.0 mg/kg/injection, schedule: Q01DX010 (sc), vehicle: saline + Tween-80 + alcohol) was 38 % of control and the T/C (dose: 200.0 mg/kg/injection, schedule: Q01DX010 (sc), vehicle: saline + Tween-80 + alcohol) was 81 % of control. The T/C (dose: 400.0 mg/kg/injection, schedule: Q01DX010 (sc), vehicle: saline + Tween-80 + alcohol) was 61 % of control.

`CC(=O)C(O)N1C(=O)C=CC1=O` (stereo not given) was tested, and the T/C (dose: 2.5 mg/kg/injection, schedule: Q01DX010 (sc), vehicle: saline) was 157 % of control, the T/C (dose: 5.0 mg/kg/injection, schedule: Q01DX010 (sc), vehicle: saline) was 117 % of control and the T/C (dose: 10.0 mg/kg/injection, schedule: Q01DX010 (sc), vehicle: saline) was 159 % of control.
